Test results published in patent US20260176320A1, “MODULATORS OF G-PROTEIN COUPLED RECEPTORS” (priority 2018, published 2026).
Where two headings read alike, the source gives them in different places.

Columns and labels:
GLP-1R = GLP-1R (Homo sapiens, UniProt P43220); experiment: HitHunter cAMP assay (GLP-1R); type: cell-based; details: cAMP, read-out: (Emax) GLP-1R
Experimental: (§1) Suspension cells were harvested and resuspended in 1×HBSS (+10 mM HEPES, 625 μM IBMX, 0.2% BSA) according to the following procedure: 5 μL of 2× cell suspension+1× antibody were added to each well, where the optimal cell density was 10,000 cells per well in a low volume 384-well plate. Agonist serial dilutions in a separate 384 well dilution plate in a 22-point series of 2× dilutions of agonist in DMSO were performed as follows. 80 μL of the highest concentration of Agonist/DMSO was added to well No. 1. 40 μL was removed from well No. 1 and added it to well No. 2, followed by gentle mixing. […] This process was repeated until well No. 22. Additional serial dilutions for additional agonists were set up in a similar manner. 50 nL of each 2× agonist serial dilution was added in duplicate to the designated agonist rows of the assay plate using the Labcyte ECHO. Assay plate was incubated for 30 minutes at room temperature. Following agonist incubation, 5 μL of cAMP Antibody Reagent was added to all wells. […] Plates were spun down briefly. Assay plate was incubated for 1 hour at room temperature in the dark for the immunocompetition reaction to occur. […] Plates were spun down briefly. Assay plate was incubated O/N at room temperature in the dark. Samples were read on Tecan i-control plate reader using luminescence mode with 300 ms integration time. Data analysis was performed using GraphPad Prism.

GIP-R = molecular target: T1, GIP-R (Homo sapiens, UniProt P48546); experiment: HitHunter cAMP assay (GIP-R); type: cell-based; details: cAMP, read-out: (Emax) GIP-R
T1 sequence (P48546 22-466): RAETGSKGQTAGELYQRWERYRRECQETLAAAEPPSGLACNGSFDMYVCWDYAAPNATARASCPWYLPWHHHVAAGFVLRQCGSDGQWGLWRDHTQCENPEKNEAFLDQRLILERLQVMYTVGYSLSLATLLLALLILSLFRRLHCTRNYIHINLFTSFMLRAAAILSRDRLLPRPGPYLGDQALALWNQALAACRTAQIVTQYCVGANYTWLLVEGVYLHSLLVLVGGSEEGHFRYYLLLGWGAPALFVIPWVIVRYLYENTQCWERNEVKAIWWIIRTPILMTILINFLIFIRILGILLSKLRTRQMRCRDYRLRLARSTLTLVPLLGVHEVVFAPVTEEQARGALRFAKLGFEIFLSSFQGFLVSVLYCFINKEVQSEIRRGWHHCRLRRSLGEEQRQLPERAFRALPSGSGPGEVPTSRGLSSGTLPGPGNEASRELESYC
Experimental: as §1

Chain of GLP-1R (P43220 24-463): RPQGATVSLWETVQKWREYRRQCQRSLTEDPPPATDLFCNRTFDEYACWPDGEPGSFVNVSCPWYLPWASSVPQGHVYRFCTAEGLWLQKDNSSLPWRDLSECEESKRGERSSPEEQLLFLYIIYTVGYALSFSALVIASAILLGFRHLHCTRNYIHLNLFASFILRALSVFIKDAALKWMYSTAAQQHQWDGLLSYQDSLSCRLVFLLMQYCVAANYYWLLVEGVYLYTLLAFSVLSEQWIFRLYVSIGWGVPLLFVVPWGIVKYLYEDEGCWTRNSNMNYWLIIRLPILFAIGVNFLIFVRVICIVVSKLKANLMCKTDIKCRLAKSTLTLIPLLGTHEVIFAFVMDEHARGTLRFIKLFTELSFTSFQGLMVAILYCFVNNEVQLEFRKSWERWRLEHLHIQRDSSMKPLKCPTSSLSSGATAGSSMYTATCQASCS

Row | SMILES | Emax (GLP-1R; Table 3) [%] | Emax (GLP-1R; Table 3A) [%] | Emax (GIP-R; Table 3) [%] | Emax (GIP-R; Table 3A) [%]
1 | CCCCCCCCCCCCCCCC(=O)N[C@@H](CCC(=O)NCCCC[C@H](NC(=O)[C@H](CO)NC(=O)[C@@H]1CCCN1C(=O)[C@@H]1CCCN1C(=O)[C@@H]1CCCN1C(=O)[C@H](C)NC(=O)CNC(=O)[C@H](CO)NC(=O)[C@H](CO)NC(=O)[C@@H]1CCCN1C(=O)CNC(=O)CNC(=O)[C@H](C)NC(=O)[C@H](CC(C)C)NC(=O)[C@H](CC(C)C)NC(=O)[C@H](Cc1c[nH]c2ccccc12)NC(=O)[C@H](CC(N)=O)NC(=O)[C@@H](NC(=O)[C@H](Cc1ccccc1)NC(=O)[C@H](CCC(=O)O)NC(=O)C(C)(C)NC(=O)[C@H](C)NC(=O)[C@H](C)NC(=O)[C@H](CCC(N)=O)NC(=O)[C@H](CCCCN)NC(=O)[C@H](CC(=O)O)NC(=O)[C@H](CC(C)C)NC(=O)[C@H](Cc1ccc(O)cc1)NC(=O)[C@@H](NC(=O)[C@H](CO)NC(=O)[C@H](Cc1ccc(O)cc1)NC(=O)[C@H](CC(=O)O)NC(=O)[C@H](CO)NC(=O)[C@@H](NC(=O)[C@H](Cc1ccccc1)NC(=O)[C@@H](NC(=O)CNC(=O)[C@H](CCC(=O)O)NC(=O)CSCC(=O)NCCN1C[C@H](C)CC1=O)[C@@H](C)O)[C@@H](C)O)[C@@H](C)CC)C(C)C)C(N)=O)C(=O)O (single isomer, unassigned) [Compound 28] | 101 | 101 | 57 | 57
2 | CCCCCCCCCCCCCCCC(=O)N[C@@H](CCC(=O)NCCCC[C@H](NC(=O)[C@H](CO)NC(=O)[C@@H]1CCCN1C(=O)[C@@H]1CCCN1C(=O)[C@@H]1CCCN1C(=O)[C@H](C)NC(=O)CNC(=O)[C@H](CO)NC(=O)[C@H](CO)NC(=O)[C@@H]1CCCN1C(=O)CNC(=O)CNC(=O)[C@H](C)NC(=O)[C@H](CC(C)C)NC(=O)[C@H](CC(C)C)NC(=O)[C@H](Cc1c[nH]c2ccccc12)NC(=O)[C@H](CC(N)=O)NC(=O)[C@@H](NC(=O)[C@H](Cc1ccccc1)NC(=O)[C@H](CCC(=O)O)NC(=O)C(C)(C)NC(=O)[C@H](C)NC(=O)[C@H](C)NC(=O)[C@H](CCC(N)=O)NC(=O)[C@H](CCCCN)NC(=O)[C@H](CC(=O)O)NC(=O)[C@H](CC(C)C)NC(=O)[C@H](Cc1ccc(O)cc1)NC(=O)[C@@H](NC(=O)[C@H](CO)NC(=O)[C@H](Cc1ccc(O)cc1)NC(=O)[C@H](CC(=O)O)NC(=O)[C@H](CO)NC(=O)[C@@H](NC(=O)[C@H](Cc1ccccc1)NC(=O)[C@@H](NC(=O)CNC(=O)[C@H](CCC(=O)O)NC(=O)CSCC(=O)NCCN1C(=O)C[C@@H](CC)C1=O)[C@@H](C)O)[C@@H](C)O)[C@@H](C)CC)C(C)C)C(N)=O)C(=O)O (single isomer, unassigned) [Compound 61] | 96 | 96 | 56 | 56
3 | CCCCCCCCCCCCCCCC(=O)N[C@@H](CCC(=O)NCCCC[C@H](NC(=O)[C@H](CO)NC(=O)[C@@H]1CCCN1C(=O)[C@@H]1CCCN1C(=O)[C@@H]1CCCN1C(=O)[C@H](C)NC(=O)CNC(=O)[C@H](CO)NC(=O)[C@H](CO)NC(=O)[C@@H]1CCCN1C(=O)CNC(=O)CNC(=O)[C@H](C)NC(=O)[C@H](CC(C)C)NC(=O)[C@H](CC(C)C)NC(=O)[C@H](Cc1c[nH]c2ccccc12)NC(=O)[C@H](CC(N)=O)NC(=O)[C@@H](NC(=O)[C@H](Cc1ccccc1)NC(=O)[C@H](CCC(=O)O)NC(=O)C(C)(C)NC(=O)[C@H](C)NC(=O)[C@H](C)NC(=O)[C@H](CCC(N)=O)NC(=O)[C@H](CCCCN)NC(=O)[C@H](CC(=O)O)NC(=O)[C@H](CC(C)C)NC(=O)[C@H](Cc1ccc(O)cc1)NC(=O)[C@@H](NC(=O)[C@H](CO)NC(=O)[C@H](Cc1ccc(O)cc1)NC(=O)[C@H](CC(=O)O)NC(=O)[C@H](CO)NC(=O)[C@@H](NC(=O)[C@H](Cc1ccccc1)NC(=O)[C@@H](NC(=O)CNC(=O)[C@H](CCC(=O)O)NC(=O)CSCC(=O)NCCN1C(=O)C[C@H](CC)C1=O)[C@@H](C)O)[C@@H](C)O)[C@@H](C)CC)C(C)C)C(N)=O)C(=O)O (single isomer, unassigned) [Compound 62] | 101 | 101 | 48 | 48
4 | CCCCCCCCCCCCCCCC(=O)N[C@@H](CCC(=O)NCCCC[C@H](NC(=O)[C@H](CO)NC(=O)[C@@H]1CCCN1C(=O)[C@@H]1CCCN1C(=O)[C@@H]1CCCN1C(=O)[C@H](C)NC(=O)CNC(=O)[C@H](CO)NC(=O)[C@H](CO)NC(=O)[C@@H]1CCCN1C(=O)CNC(=O)CNC(=O)[C@H](C)NC(=O)[C@H](CC(C)C)NC(=O)[C@H](CC(C)C)NC(=O)[C@H](Cc1c[nH]c2ccccc12)NC(=O)[C@H](CC(N)=O)NC(=O)[C@@H](NC(=O)[C@H](Cc1ccccc1)NC(=O)[C@H](CCC(=O)O)NC(=O)C(C)(C)NC(=O)[C@H](C)NC(=O)[C@H](C)NC(=O)[C@H](CCC(N)=O)NC(=O)[C@H](CCCCN)NC(=O)[C@H](CC(=O)O)NC(=O)[C@H](CC(C)C)NC(=O)[C@H](Cc1ccc(O)cc1)NC(=O)[C@@H](NC(=O)[C@H](CO)NC(=O)[C@H](Cc1ccc(O)cc1)NC(=O)[C@H](CC(=O)O)NC(=O)[C@H](CO)NC(=O)[C@@H](NC(=O)[C@H](Cc1ccccc1)NC(=O)[C@@H](NC(=O)CNC(=O)[C@H](CCC(=O)O)NC(=O)CSCC(=O)NCCN1C(=O)[C@@H](C)[C@H](C)C1=O)[C@@H](C)O)[C@@H](C)O)[C@@H](C)CC)C(C)C)C(N)=O)C(=O)O (single isomer, unassigned) [Compound 63] | 91 | 91 | 24 | 24
5 | CCCCCCCCCCCCCCCC(=O)N[C@@H](CCC(=O)NCCCC[C@H](NC(=O)[C@H](CO)NC(=O)[C@@H]1CCCN1C(=O)[C@@H]1CCCN1C(=O)[C@@H]1CCCN1C(=O)[C@H](C)NC(=O)CNC(=O)[C@H](CO)NC(=O)[C@H](CO)NC(=O)[C@@H]1CCCN1C(=O)CNC(=O)CNC(=O)[C@H](C)NC(=O)[C@H](CC(C)C)NC(=O)[C@H](CC(C)C)NC(=O)[C@H](Cc1c[nH]c2ccccc12)NC(=O)[C@H](CC(N)=O)NC(=O)[C@@H](NC(=O)[C@H](Cc1ccccc1)NC(=O)[C@H](CCC(=O)O)NC(=O)C(C)(C)NC(=O)[C@H](C)NC(=O)[C@H](C)NC(=O)[C@H](CCC(N)=O)NC(=O)[C@H](CCCCN)NC(=O)[C@H](CC(=O)O)NC(=O)[C@H](CC(C)C)NC(=O)[C@H](Cc1ccc(O)cc1)NC(=O)[C@@H](NC(=O)[C@H](CO)NC(=O)[C@H](Cc1ccc(O)cc1)NC(=O)[C@H](CC(=O)O)NC(=O)[C@H](CO)NC(=O)[C@@H](NC(=O)[C@H](Cc1ccccc1)NC(=O)[C@@H](NC(=O)CNC(=O)[C@H](CCC(=O)O)NC(=O)CSCC(=O)NCCN1C[C@@H](C)CC1=O)[C@@H](C)O)[C@@H](C)O)[C@@H](C)CC)C(C)C)C(N)=O)C(=O)O (single isomer, unassigned) [Compound 64] | 97 | 97 | 35 | 35
6 | CCCCCCCCCCCCCCCC(=O)N[C@@H](CCC(=O)NCCCC[C@H](NC(=O)[C@H](CO)NC(=O)[C@@H]1CCCN1C(=O)[C@@H]1CCCN1C(=O)[C@@H]1CCCN1C(=O)[C@H](C)NC(=O)CNC(=O)[C@H](CO)NC(=O)[C@H](CO)NC(=O)[C@@H]1CCCN1C(=O)CNC(=O)CNC(=O)[C@H](C)NC(=O)[C@H](CC(C)C)NC(=O)[C@H](CC(C)C)NC(=O)[C@H](Cc1c[nH]c2ccccc12)NC(=O)[C@H](CC(N)=O)NC(=O)[C@@H](NC(=O)[C@H](Cc1ccccc1)NC(=O)[C@H](CCC(=O)O)NC(=O)C(C)(C)NC(=O)[C@H](C)NC(=O)[C@H](C)NC(=O)[C@H](CCC(N)=O)NC(=O)[C@H](CCCCN)NC(=O)[C@H](CC(=O)O)NC(=O)[C@H](CC(C)C)NC(=O)[C@H](Cc1ccc(O)cc1)NC(=O)[C@@H](NC(=O)[C@H](CO)NC(=O)[C@H](Cc1ccc(O)cc1)NC(=O)[C@H](CC(=O)O)NC(=O)[C@H](CO)NC(=O)[C@@H](NC(=O)[C@H](Cc1ccccc1)NC(=O)[C@@H](NC(=O)CNC(=O)[C@H](CCC(=O)O)NC(=O)CSCC(=O)NCCN1C(=O)CC[C@H]1C)[C@@H](C)O)[C@@H](C)O)[C@@H](C)CC)C(C)C)C(N)=O)C(=O)O (single isomer, unassigned) [Compound 74] | 92 | 92 | 47 | 47
